Structures are written as SMILES. Bounds are passed on as bounds.

This test deals with T1, MRGPRX2 (Homo sapiens, UniProt Q96LB1).
T1 sequence (Q96LB1 1-330): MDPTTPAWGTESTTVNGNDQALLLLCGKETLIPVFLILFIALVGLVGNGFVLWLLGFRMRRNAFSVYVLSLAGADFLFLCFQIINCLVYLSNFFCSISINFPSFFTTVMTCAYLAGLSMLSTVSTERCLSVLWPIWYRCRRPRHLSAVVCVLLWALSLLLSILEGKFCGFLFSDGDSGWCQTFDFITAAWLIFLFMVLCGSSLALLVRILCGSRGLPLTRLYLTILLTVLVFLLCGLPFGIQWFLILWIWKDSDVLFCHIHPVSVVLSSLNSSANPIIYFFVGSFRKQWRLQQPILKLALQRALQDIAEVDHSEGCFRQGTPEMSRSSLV
The experiment in a line: MRGPRX2 reporter cell assay (NFAT-RE luciferase, Substance P stimulation). The conditions noted are these: U2OS cells stably transfected with MRGPRX2 and NFAT-RE luciferase reporter, Substance P at EC80. The format is cell-based. On the procedure: MRGPRX2 Reporter Cell Assays U2OS cells (ATCC, Manassas, VA) were stably transfected with MRGPRX2 expression clones (GeneCopoeia, Rockville, MD) and the pGL4.30 [luc2P/NFAT-RE/Hygro] reporter plasmid (Promega, Madison, WI). Clonal cells were maintained in Growth Media (McCoy's 5A, 10% FBS, 495 μg/ml hygromycin, 2 μg/ml puromycin, 100 units/ml penicillin, and 100 ug/ml streptomycin). The day before assay, cells were plated to white 384-well microplates at 3000 (MRGPRX2) cells/well in 10 ul Assay Media (McCoy's 5A, 2% charcoal dextran stripped FBS, 100 units/ml penicillin, and 100 ug/ml streptomycin) (Gibco, Thermo Fisher) and allowed to adhere overnight. The following day, serially diluted compound stocks were added directly to the cells (final DMSO concentration of 0.5%) and pre-incubated for 30 minutes at 37° C., 5% CO2. The final concentration of Substance P (Tocris, Minneapolis, MN, or PEPTIDE INSTITUTE, Osaka, Japan) corresponding to EC80 was added to stimulate the (MRGPRX2) cells. Cells were returned to the incubator for 6 hrs, after which 5 ul of ONE-GLO substrate (Promega) was added. Luminescence was read within 15 minutes (BioTek, Winooski, VT or infinite M1000Pro, Tecan Japan, Kanagawa, Japan). Percent inhibition for each test compound was calculated using the formula: […] where: • A=the luminescence count of the “test compound” well • B=the median luminescence count of the “Vehicle (0.5% DMSO)” wells • C═the median luminescence count of the “Vehicle (0.5% DMSO)+5 uM of substance P” wells The mean percent inhibition of each concentration of “test compound” was used to generate dose-response curves. IC50 values were calculated using a four-parameter logistic fit to the data using GraphPad Prism software. • +++: […]

Broadly, the IC50 is the concentration that gives 50% inhibition. Low values mean greater potency in that assay, high ones weaker potency in that assay. Take `Cn1cc(-c2c(-c3c(C(F)F)nn4c3OC[C@@H](O)C4)[nH]c3ncccc23)c(C#N)n1` [EX. 491, (S)-4-(2-(2-(difluoromethyl)-6-hydroxy-6,7-dihydro-5H-pyrazolo[5,1-b] [1,3]oxazin-3-yl)-1H-pyrrolo[2,3-b]pyridin-3-yl)-1-methyl-1H-pyrazole-3-carbonitrile]: the IC50 (class symbols) was less than 10 nM. On the same count and under the same terms, the same measure for `Cc1ccnc2[nH]c(-c3c[nH]nc3C(F)(F)F)c(-c3ccccc3C#N)c12` [EX. 78]: less than 10 nM; for `[2H]C([2H])([2H])Oc1ccc(C#N)c(-c2c(-c3c(C)nn4c3OC(C)C4)[nH]c3ncccc23)c1` (centres unmarked) [EX. 167]: less than 10 nM; for `COc1ccc(C#N)c(-c2c(-c3c(C)nn4c3OCC(N)C4)[nH]c3ncccc23)c1` (centres unmarked) [EX. 359]: less than 10 nM.

Compound `Cn1cc(-c2c(-c3c(C(F)F)nn4c3OC[C@@H](NS(=O)(=O)CCCO)C4)[nH]c3ncccc23)c(OC(F)F)n1` [EX. 581] came in with an IC50 (class symbols) of less than 10 nM. Compound `Cn1cc(-c2c(-c3c(C(F)F)nn4c3OC[C@@H](OCC(C)(C)O)C4)[nH]c3ncccc23)c(OC(F)F)n1` [EX. 535] showed a 50% inhibitory concentration (IC50) of 2 nM. For the setting “class symbols”, the IC50 is less than 10 nM.

`COc1ccc(C#N)c(-c2c(-c3cc(F)ccc3OC)[nH]c3ncccc23)c1` [EX. 107, 2-(2-(5-fluoro-2-methoxyphenyl)-1H-pyrrolo[2,3-b]pyridin-3-yl)-4-methoxybenzonitrile] registered an IC50 (class symbols) of less than 10 nM. Same read-out and setting: the same measure for `Cn1cc(-c2c(-c3c(C4CC4)nn4c3OC[C@@H](NS(C)(=O)=O)C4)[nH]c3ncccc23)c(OC(F)F)n1` [EX. 484]: less than 10 nM; for `COCCO[C@@H]1COc2c(-c3[nH]c4ncccc4c3-c3cn(C)nc3OC(F)F)c(C(F)F)nn2C1` [EX. 533]: less than 10 nM; for `FC(F)Oc1ncccc1-c1c(-c2c(C(F)F)nn3c2OCC3)[nH]c2ncccc12` [EX. 442]: less than 10 nM. Where the note is “class symbols”, `O[C@@H]1COc2c(-c3[nH]c4ncccc4c3-c3ccccc3OC(F)F)c(C(F)F)nn2C1` [EX. 469] returned an IC50 of less than 10 nM. The compound `COc1ncccc1-c1c(-c2c(C(F)F)nn3c2OCCC3)[nH]c2ncccc12` [EX. 429, 2-(difluoromethyl)-3-(3-(2-methoxypyridin-3-yl)-1H-pyrrolo[2,3-b]pyridin-2-yl)-6,7-dihydro-5H-pyrazolo[5,1-b] [1,3]oxazine] returned an IC50 (class symbols) of less than 10 nM. Compound `CS(=O)(=O)N[C@@H]1COc2c(-c3[nH]c4ncccc4c3-c3cccnc3C#N)c(C(F)F)nn2C1` [EX. 522] returned an IC50 (class symbols) of less than 10 nM.

`O[C@@H]1COc2c(-c3[nH]c4ncccc4c3-c3cc(F)ccc3OC(F)F)c(C(F)F)nn2C1` [EX. 468]: for the setting “class symbols”, the IC50 is less than 10 nM. Same read-out and setting: the same measure for `N#Cc1ncccc1-c1c(-c2c(C(F)F)nn3c2OC[C@@H](O)C3)[nH]c2ncccc12` [EX. 470]: less than 10 nM; for `Cn1cc(-c2c(-c3c(CF)nn4c3OCCC4)[nH]c3ncccc23)c(OC(F)F)n1` [EX. 423]: less than 10 nM.

Consider `COc1ccc(C#N)c(-c2c(-c3c(C)nn4c3OCCC4)[nH]c3ncccc23)c1` [EX. 227], for which the IC50 (class symbols) was less than 10 nM. The same measure, in the same setting: the value for `COc1ccc(C#N)c(-c2c(-c3c(C(F)F)nn4c3OCC4)[nH]c3ncccc23)c1` [EX. 243] was less than 10 nM; that for `[2H]C([2H])([2H])Oc1ccc(C#N)c(-c2c(-c3c(OC)nn4cccnc34)[nH]c3ncccc23)c1` [EX. 175] was less than 10 nM; that for `CC(=O)N[C@@H]1COc2c(-c3[nH]c4ncccc4c3-c3cn(C)nc3OC(F)F)c(C(F)F)nn2C1` [EX. 544] was less than 10 nM. In the case of `N#Cc1ccccc1-c1c(-c2ccccc2O)[nH]c2ncccc12` [EX. 122], the IC50 (class symbols) is less than 10 nM. Same read-out and setting: the value for `COc1nscc1-c1c(-c2c(C(F)F)nn3c2OCCC3)[nH]c2ncccc12` [EX. 404] was 10 to 100 nM; that for `COc1nn2cccnc2c1-c1[nH]c2ncccc2c1-c1ccccc1C#N` [EX. 141] was less than 10 nM.

As to `CCc1nn2c(c1-c1[nH]c3ncccc3c1-c1cn(C)nc1OC(F)F)OC[C@@H](NC(=O)OC)C2` [EX. 572], the IC50 was found to be 3.6 nM. Also, the IC50 (class symbols) was less than 10 nM. As to `COC(=O)N[C@@H]1COc2c(-c3[nH]c4ncccc4c3-c3cc(C)sc3C#N)c(C)nn2C1` [EX. 494], for the setting “class symbols”, the IC50 is less than 10 nM. Still for that read-out and setting: the same measure for `COc1ccc(C#N)c(-c2c(-c3c(C(F)F)nn4c3OC[C@H](NC(C)=O)C4)[nH]c3ncccc23)c1` [EX. 362]: less than 10 nM; for `COC(=O)N[C@@H]1COc2c(-c3[nH]c4ncsc4c3-c3cn(C)nc3OC(F)F)c(C(F)F)nn2C1` [EX. 519]: less than 10 nM. With `FC(F)Oc1n[nH]cc1-c1c(-c2c(C(F)F)nn3c2OCCC3)[nH]c2ncccc12` [EX. 406], the half-maximal inhibitory concentration (IC50) (class symbols) was 100 to 1000 nM. For the setting “class symbols”, `[2H]C([2H])([2H])Oc1ccc(C#N)c(-c2c(-c3c(C(F)F)nn4c3OCC(O)C4)[nH]c3ncccc23)c1` (centres unmarked) [EX. 202] displayed a 50% inhibitory concentration (IC50) of less than 10 nM. On the same count and under the same terms, the same measure for `C[C@H](O)CN(C)C(=O)N[C@@H]1COc2c(-c3[nH]c4ncccc4c3-c3cn(C)nc3OC(F)F)c(C(F)F)nn2C1` [EX. 595, 3-((S)-3-(3-(3-(difluoromethoxy)-1-methyl-1H-pyrazol-4-yl)-1H-pyrrolo[2,3-b]pyridin-2-yl)-2-(difluoromethyl)-6,7-dihydro-5H-pyrazolo[5,1-b] [1,3]oxazin-6-yl)-1-((S)-2-hydroxypropyl)-1-methylurea]: less than 10 nM; for `Cn1cc(-c2c(-c3c(C(F)F)nn4c3OC[C@@H](NC(=O)[C@H]3C[C@@H](O)C3)C4)[nH]c3ncccc23)c(OC(F)F)n1` [EX. 564]: less than 10 nM. The same measure, in the same setting: the value for `N#Cc1ccccc1-c1c(-c2c(CF)nn3c2OCCC3)[nH]c2ncccc12` [EX. 271] was less than 10 nM; that for `[2H]C([2H])([2H])Oc1ccc(C#N)c(-c2c(-c3c(C)nn4c3OCC(O)C4)[nH]c3ncccc23)c1` (centres unmarked) [EX. 367] was less than 10 nM. On the same count and under the same terms, the same measure for `Cn1cc(-c2c(-c3c(C(F)F)nn4c3OC[C@@H](NS(C)(=O)=O)C4)[nH]c3ncsc23)c(OC(F)F)n1` [EX. 520, (S)—N-(3-(6-(3-(difluoromethoxy)-1-methyl-1H-pyrazol-4-yl)-4H-pyrrolo[2,3-d]thiazol-5-yl)-2-(difluoromethyl)-6,7-dihydro-5H-pyrazolo[5,1-b] [1,3]oxazin-6-yl) methanesulfonamide]: less than 10 nM; for `O[C@@H]1COc2c(-c3[nH]c4ncccc4c3-c3ccccc3OC(F)(F)F)c(C(F)F)nn2C1` [EX. 464]: less than 10 nM; for `C[C@@]1(O)COc2c(-c3[nH]c4ncccc4c3-c3cccnc3OC(F)F)c(C3CC3)nn2C1` [EX. 440]: less than 10 nM. `CS(=O)(=O)N[C@@H]1COc2c(-c3[nH]c4ncccc4c3-c3csnc3OC(F)F)c(C(F)F)nn2C1` [EX. 524] returned a half-inhibitory concentration (IC50) (class symbols) of less than 10 nM. `COc1ccc(C#N)c(-c2c(-c3cn(C)nc3C(F)F)[nH]c3ncccc23)c1` [EX. 113] returned an IC50 (class symbols) of less than 10 nM. On the same count and under the same terms, the value for `C[C@@]1(O)COc2c(-c3[nH]c4ncccc4c3-c3cccnc3OC(F)F)c(C(F)F)nn2C1` [EX. 438] was less than 10 nM. On the same count and under the same terms, the same measure for `N#Cc1ncccc1-c1c(-c2c(C(F)F)nn3c2OC[C@@H](NC(=O)C2CC2)C3)[nH]c2ncccc12` [EX. 591]: less than 10 nM. The same measure, in the same setting: the same measure for `Cn1cc(-c2c(-c3c(C(F)F)nn4c3OC[C@@H](NC(=O)[C@@H]3C[C@H]3F)C4)[nH]c3ncccc23)c(OC(F)F)n1` [EX. 551]: less than 10 nM; for `O[C@@H]1COc2c(-c3[nH]c4ncccc4c3-c3ccsc3Cl)c(C(F)F)nn2C1` [EX. 453]: less than 10 nM; for `[2H]C([2H])([2H])Oc1ccc(C#N)c(-c2c(-c3c(C)nn4c3OCCC4C)[nH]c3ncccc23)c1` (centres unmarked) [EX. 170]: less than 10 nM. On to `N#Cc1ccccc1-c1c(-c2c(C(F)F)nn3c2OC[C@H](O)C3)[nH]c2ncccc12` [EX. 371], for which the IC50 (class symbols) was less than 10 nM. Same read-out and setting: the value for `Cn1cc(-c2c(-c3c(C(F)F)nn4c3OC[C@@H](NC(=O)[C@H]3C[C@@](C)(O)C3)C4)[nH]c3ncccc23)c(OC(F)F)n1` [EX. 563] was less than 10 nM. `N[C@@H]1COc2c(-c3[nH]c4ncccc4c3-c3csnc3OC(F)F)c(C(F)F)nn2C1` [EX. 425] showed a half-maximal inhibitory concentration (IC50) (class symbols) of less than 10 nM. Regarding `Cc1cc(-c2c(-c3c(C)nn4c3OC[C@@H](O)C4)[nH]c3ncccc23)c(C#N)s1` [EX. 459], the half-maximal inhibitory concentration (IC50) (class symbols) is less than 10 nM. Same read-out and setting: the same measure for `Cn1cc(C(=O)N[C@@H]2COc3c(-c4[nH]c5ncccc5c4-c4cn(C)nc4OC(F)F)c(C(F)F)nn3C2)cn1` [EX. 562]: less than 10 nM.

For the origin of these results see US20250326772A1, “MRGPRX2 ANTAGONISTS, PHARMACEUTICAL COMPOSITION INCLUDING MRGPRX2 ANTAGONIST, AND METHOD OF TREATING MRGPRX2-MEDIATED DISEASE OR DISORDER” (KYORIN PHARMACEUTICAL CO., LTD., priority 2024, published 2025).
